Measured values: patent US20210023523A1, “PARALLEL ORGANIC SYNTHESIS ON PATTERNED PAPER USING A SOLVENT-REPELLING MATERIAL” (The Governors of the University of Alberta, priority 2013, published 2021)

Legend:
[1] = test system: MCF-7 breast cancer cells; assay: Culture of MCF-7 cells on peptide-modified array with or without paclitaxel (Taxol); assay type: cell-based; conditions: cells cultured on a peptide that induced morphological changes; Taxol for the last 4 days of seven; without drug: spread cells forming aggregate
Source text: FIG. 19 illustrates changes such as drug-resistance and morphology observed when a peptide-modified array supported culture of MCF-7 breast cancer cells for seven days and was exposed to the anti-cancer drug paclitaxel (Taxol) for the last 4 days. FIG. 19a presents confocal images of calcein-stained cells after culture in media without taxol for four peptides (including two controls) and FIG. 19b correspond to cells cultured in media with Taxol.

MDA-MB-231-GFP cells = assay: Short-term adhesion of MDA-MB-231-GFP cells to peptides synthesized on Teflon-patterned paper arrays; assay type: cell-based; conditions: for binding of cells to peptide-modified paper: confocal microscopy, FIG. 10b, 3 hours of incubation
Method: When immobilized on paper, 5 out of the 8 peptides synthesized supported adhesion of MDA-MB-231 breast carcinoma at levels similar to or higher than the positive control GRGDS. The other three peptides supported greater adhesion than the scrambled peptide, GGRDS.
The images represent short term adhesion of cells after 3 hours of incubation on the array.
In FIG. 14(a), a fluorescent gel scanner was used to validate adhesion of MDA-MB-231-GFP cells to phage-derived peptides on peptide-arrays. […] FIG. 14(c) illustrates digitization of the number of cells per zone from fluorescent gel scanner images of the 32 peptides. The (+) and (−) lines represent the intensity level of the positive and negative controls.
FIG. 18 illustrates a typical cell-binding experiment on a half array (40 peptides identified from two panning experiments, and 8 controls). […] FIG. 18c consists of the zones of interest for each peptide extracted from FIG. 18a, and organized by peptides. The average intensity of fluorescence for each peptide zone is then converted into a number of cells per zone through a calibration curve previously established for these cells (FIG. 18d). FIG. 18e is the resulting plot with standard deviation over the four replicates.

Compound	cell morphology [1]	binding of cells to peptide-modified paper (MDA-MB-231-GFP cells)	adhesion of MDA-MB-231 breast carcinoma cells to peptide immobilized on paper (MDA-MB-231-GFP cells; fluorescent gel scanner (GFP fluorescence), 3 hours of incubation on the array, known bioactive peptides, FIG. 10a)
CC(=O)O[C@H]1C(=O)[C@@]2(C)[C@H]([C@H](OC(=O)c3ccccc3)[C@]3(O)C[C@H](OC(=O)[C@H](O)[C@@H](NC(=O)c4ccccc4)c4ccccc4)C(C)=C1C3(C)C)[C@]1(OC(C)=O)CO[C@@H]1C[C@@H]2O [Taxol, paclitaxel]	isolated, rounded cells		
GGRDS (peptide identified by phage display panning on MDA-MB-231 cells) [scrambled peptide, negative control]		no binding	minimal binding
GRGDS (peptide identified by phage display panning on MDA-MB-231 cells)		binding	
